Assay results published in patent publication US10168342B2, “Lipid probes and uses thereof” (THE SCRIPPS RESEARCH INSTITUTE, priority 2015, dated 2019).
Where two headings read alike, the source gives them in different places.

Assays:
[1] = target: AEA-DA lipid probe targets in Neuro2a cells (Mus musculus, UniProt Q9CQ45)
[2] = target: T1, AEA-DA lipid probe targets in Neuro2a cells (Mus musculus, UniProt Q9CQQ7)
T1 sequence (Q9CQQ7 43-256): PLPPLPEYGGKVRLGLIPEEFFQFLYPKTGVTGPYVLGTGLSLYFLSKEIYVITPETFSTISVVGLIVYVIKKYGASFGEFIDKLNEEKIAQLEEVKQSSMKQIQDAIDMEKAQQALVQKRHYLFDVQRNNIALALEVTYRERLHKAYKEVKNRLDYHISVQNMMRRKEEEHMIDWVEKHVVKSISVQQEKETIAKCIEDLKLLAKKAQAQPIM

[3] = target: AEA-DA lipid probe targets in Neuro2a cells (Mus musculus, UniProt P45377)
Sequence of AEA-DA lipid probe targets in Neuro2a cells (Mus musculus, UniProt P45377) (P45377 whole entry): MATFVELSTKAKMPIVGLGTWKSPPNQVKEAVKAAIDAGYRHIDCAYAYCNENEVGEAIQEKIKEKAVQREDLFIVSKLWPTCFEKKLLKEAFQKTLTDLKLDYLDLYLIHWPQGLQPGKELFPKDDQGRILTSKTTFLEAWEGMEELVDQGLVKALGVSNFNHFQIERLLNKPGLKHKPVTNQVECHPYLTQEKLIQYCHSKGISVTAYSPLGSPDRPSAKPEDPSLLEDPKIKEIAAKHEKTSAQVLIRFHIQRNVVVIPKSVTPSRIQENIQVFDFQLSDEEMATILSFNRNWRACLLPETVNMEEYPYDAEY

[4] = target: AEA-DA lipid probe targets in Neuro2a cells (Mus musculus, UniProt Q9DBC7)
Sequence of AEA-DA lipid probe targets in Neuro2a cells (Mus musculus, UniProt Q9DBC7) (Q9DBC7 whole entry): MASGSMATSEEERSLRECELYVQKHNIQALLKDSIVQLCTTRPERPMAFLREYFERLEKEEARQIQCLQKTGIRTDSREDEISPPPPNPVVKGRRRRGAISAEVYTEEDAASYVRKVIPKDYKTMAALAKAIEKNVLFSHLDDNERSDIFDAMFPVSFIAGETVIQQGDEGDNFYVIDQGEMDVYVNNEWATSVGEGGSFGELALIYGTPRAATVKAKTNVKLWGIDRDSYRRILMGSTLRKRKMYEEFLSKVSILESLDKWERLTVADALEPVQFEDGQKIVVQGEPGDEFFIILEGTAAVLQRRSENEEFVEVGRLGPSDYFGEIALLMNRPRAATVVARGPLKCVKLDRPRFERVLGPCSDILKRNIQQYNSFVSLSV

[5] = target: AEA-DA lipid probe targets in Neuro2a cells (Mus musculus, UniProt P57716)
Sequence of AEA-DA lipid probe targets in Neuro2a cells (Mus musculus, UniProt P57716) (P57716 28-708): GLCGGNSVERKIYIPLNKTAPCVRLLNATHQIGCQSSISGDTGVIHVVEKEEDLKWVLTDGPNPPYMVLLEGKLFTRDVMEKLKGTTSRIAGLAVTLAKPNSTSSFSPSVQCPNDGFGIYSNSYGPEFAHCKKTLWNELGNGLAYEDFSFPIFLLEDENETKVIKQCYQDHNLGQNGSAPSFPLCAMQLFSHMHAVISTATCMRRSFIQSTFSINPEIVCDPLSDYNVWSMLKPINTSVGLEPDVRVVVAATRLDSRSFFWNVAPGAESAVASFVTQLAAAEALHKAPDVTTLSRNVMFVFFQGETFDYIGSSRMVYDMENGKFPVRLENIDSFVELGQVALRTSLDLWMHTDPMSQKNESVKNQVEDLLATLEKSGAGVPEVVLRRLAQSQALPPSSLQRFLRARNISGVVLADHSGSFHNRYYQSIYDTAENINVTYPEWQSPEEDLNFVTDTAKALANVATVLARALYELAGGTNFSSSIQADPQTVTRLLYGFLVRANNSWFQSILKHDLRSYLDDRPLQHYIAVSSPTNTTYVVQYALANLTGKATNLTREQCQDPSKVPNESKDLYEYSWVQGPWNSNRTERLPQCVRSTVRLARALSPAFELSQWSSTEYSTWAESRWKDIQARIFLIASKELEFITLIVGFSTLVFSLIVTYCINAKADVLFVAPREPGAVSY

[6] = target: T2, AEA-DA lipid probe targets in Neuro2a cells (Mus musculus, UniProt Q8BMG8)
T2 sequence (Q8BMG8 1-316): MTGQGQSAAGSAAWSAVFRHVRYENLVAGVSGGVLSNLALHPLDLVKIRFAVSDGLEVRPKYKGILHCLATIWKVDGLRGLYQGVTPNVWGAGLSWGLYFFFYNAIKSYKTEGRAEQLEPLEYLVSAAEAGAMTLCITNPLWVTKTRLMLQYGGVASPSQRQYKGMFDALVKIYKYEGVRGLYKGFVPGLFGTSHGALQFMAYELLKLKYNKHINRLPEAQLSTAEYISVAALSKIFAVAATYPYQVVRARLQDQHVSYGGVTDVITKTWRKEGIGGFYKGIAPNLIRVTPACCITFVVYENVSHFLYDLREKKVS

[7] = target: T3, AEA-DA lipid probe targets in Neuro2a cells (Mus musculus, UniProt Q9DBL9)
T3 sequence (Q9DBL9 1-351): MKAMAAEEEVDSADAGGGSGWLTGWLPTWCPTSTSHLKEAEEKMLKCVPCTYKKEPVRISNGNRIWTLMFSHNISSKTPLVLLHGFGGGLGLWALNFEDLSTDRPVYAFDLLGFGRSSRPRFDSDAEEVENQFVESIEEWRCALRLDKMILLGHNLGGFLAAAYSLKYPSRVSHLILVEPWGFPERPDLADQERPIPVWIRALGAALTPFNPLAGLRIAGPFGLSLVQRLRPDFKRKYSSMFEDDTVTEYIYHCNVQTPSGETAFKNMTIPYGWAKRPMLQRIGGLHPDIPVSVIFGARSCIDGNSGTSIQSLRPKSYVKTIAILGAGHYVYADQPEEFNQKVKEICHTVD

[8] = target: AEA-DA lipid probe targets in Neuro2a cells (Mus musculus, UniProt Q8BWM0)
Sequence of AEA-DA lipid probe targets in Neuro2a cells (Mus musculus, UniProt Q8BWM0) (Q8BWM0 whole entry): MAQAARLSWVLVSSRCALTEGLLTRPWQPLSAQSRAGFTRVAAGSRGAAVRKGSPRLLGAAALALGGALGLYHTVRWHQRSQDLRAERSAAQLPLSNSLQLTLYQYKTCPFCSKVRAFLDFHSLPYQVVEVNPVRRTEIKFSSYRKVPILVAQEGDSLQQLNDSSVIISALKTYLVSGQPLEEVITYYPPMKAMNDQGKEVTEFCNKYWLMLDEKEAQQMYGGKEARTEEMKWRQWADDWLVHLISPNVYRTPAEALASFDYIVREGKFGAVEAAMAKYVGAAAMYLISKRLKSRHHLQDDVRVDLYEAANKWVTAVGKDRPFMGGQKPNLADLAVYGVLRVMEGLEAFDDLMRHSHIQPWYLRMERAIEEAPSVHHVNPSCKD

[9] = target: T4, AEA-DA lipid probe targets in Neuro2a cells (Mus musculus, UniProt Q9QZD8)
T4 sequence (Q9QZD8 1-287): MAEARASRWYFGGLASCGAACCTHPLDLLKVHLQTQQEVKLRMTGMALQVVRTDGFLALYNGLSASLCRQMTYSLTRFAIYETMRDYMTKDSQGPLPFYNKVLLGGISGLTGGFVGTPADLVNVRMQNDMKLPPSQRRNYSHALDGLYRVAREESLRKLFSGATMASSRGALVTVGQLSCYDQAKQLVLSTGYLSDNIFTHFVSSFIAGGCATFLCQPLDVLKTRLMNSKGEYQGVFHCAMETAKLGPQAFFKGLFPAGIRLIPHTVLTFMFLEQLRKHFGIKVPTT

[10] = target: T5, AEA-DA lipid probe targets in Neuro2a cells (Mus musculus, UniProt P55096)
T5 sequence (P55096 1-659): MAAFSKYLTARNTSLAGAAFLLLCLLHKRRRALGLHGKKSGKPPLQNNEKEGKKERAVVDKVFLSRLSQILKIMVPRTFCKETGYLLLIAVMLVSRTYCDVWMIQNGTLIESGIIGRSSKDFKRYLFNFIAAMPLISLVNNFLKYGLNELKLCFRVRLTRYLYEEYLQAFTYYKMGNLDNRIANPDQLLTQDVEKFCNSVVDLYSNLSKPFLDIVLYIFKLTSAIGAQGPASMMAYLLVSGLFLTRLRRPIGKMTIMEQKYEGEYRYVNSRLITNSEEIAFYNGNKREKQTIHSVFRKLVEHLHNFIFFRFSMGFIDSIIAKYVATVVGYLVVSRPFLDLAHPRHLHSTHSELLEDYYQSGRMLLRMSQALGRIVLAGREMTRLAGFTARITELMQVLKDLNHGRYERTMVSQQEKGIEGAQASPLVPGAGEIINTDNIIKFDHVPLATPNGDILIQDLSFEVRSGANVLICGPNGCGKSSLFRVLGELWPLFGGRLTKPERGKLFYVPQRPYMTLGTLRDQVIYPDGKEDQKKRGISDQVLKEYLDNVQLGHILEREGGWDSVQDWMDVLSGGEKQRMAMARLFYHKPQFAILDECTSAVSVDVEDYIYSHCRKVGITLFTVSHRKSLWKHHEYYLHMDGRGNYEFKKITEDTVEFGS

[11] = target: AEA-DA lipid probe targets in Neuro2a cells (Mus musculus, UniProt P36536)
Sequence of AEA-DA lipid probe targets in Neuro2a cells (Mus musculus, UniProt P36536) (P36536 whole entry): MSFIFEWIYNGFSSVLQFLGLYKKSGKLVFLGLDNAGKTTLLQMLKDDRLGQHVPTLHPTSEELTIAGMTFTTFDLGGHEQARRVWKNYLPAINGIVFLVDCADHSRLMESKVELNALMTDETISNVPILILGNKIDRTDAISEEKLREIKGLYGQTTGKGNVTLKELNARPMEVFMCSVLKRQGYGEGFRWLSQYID

Sequence of AEA-DA lipid probe targets in Neuro2a cells (Mus musculus, UniProt Q9CQ45) (Q9CQ45 31-171): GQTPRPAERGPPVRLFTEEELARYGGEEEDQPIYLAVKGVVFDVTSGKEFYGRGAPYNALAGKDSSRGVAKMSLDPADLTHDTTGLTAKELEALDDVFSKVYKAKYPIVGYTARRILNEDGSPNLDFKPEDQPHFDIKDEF

## CCCCC/C=C\C/C=C\C/C=C\C/C=C\CCCC(=O)NCCO [AEA, anandamide, reference compound]
[1]; competitor 200 μM
  SILAC ratio, Nenf: 1.4
[2]; competitor 200 μM
  SILAC ratio Atp5f1: 1.5
[3]; competitor 200 μM
  SILAC ratio, Akr1b8: 7.7
[4]; competitor 200 μM
  SILAC ratio, Prkar1a: 1.2
[5]; competitor 200 μM
  SILAC ratio Ncstn: 1.6
[6]; competitor 200 μM
  SILAC ratio, Slc25a32: 1.5
[7]; competitor 200 μM
  SILAC ratio, Abhd5: 1.3
[8]; competitor 200 μM
  SILAC ratio, Ptges2: 2.1
[9]; competitor 200 μM
  SILAC ratio Slc25a10: 1.2
[10]; competitor 200 μM
  SILAC ratio Abcd3: 1.5

## O=C(/C=C/c1cccnc1)NCCCCC1CCN(C(=O)c2ccccc2)CC1 [FK-866, reference compound]
[1]; competitor 25 μM
  SILAC ratio, Nenf: 2.6
[2]; competitor 25 μM
  SILAC ratio Atp5f1: 1.1
[3]; competitor 25 μM
  SILAC ratio, Akr1b8: 1.7
[11]; competitor 25 μM
  SILAC ratio, Sar1a: 1.0
[4]; competitor 25 μM
  SILAC ratio, Prkar1a: 1.5
[5]; competitor 25 μM
  SILAC ratio Ncstn: 1.1
[6]; competitor 25 μM
  SILAC ratio, Slc25a32: 1.1
[7]; competitor 25 μM
  SILAC ratio, Abhd5: 1.0
[8]; competitor 25 μM
  SILAC ratio, Ptges2: 1.4
[9]; competitor 25 μM
  SILAC ratio Slc25a10: 1.2
[10]; competitor 25 μM
  SILAC ratio Abcd3: 1.3

## CN1CCN(C(=O)c2c(-c3ccccc3)c3cc([N+](=O)[O-])ccc3n2C)CC1 [KML110, (1-Methyl-5-nitro-3-phenyl-1H-indol-2-yl)(4-methylpiperazin-1-yl)methanone]
[1]; competitor 25 μM
  SILAC ratio, Nenf: 1.7
[2]; competitor 25 μM
  SILAC ratio Atp5f1: 1.6
[3]; competitor 25 μM
  SILAC ratio, Akr1b8: 3.1
[11]; competitor 25 μM
  SILAC ratio, Sar1a: 1.4
[4]; competitor 25 μM
  SILAC ratio, Prkar1a: 1.6
[5]; competitor 25 μM
  SILAC ratio Ncstn: 1.3
[6]; competitor 25 μM
  SILAC ratio, Slc25a32: 1.5
[7]; competitor 25 μM
  SILAC ratio, Abhd5: 2.0
[8]; competitor 25 μM
  SILAC ratio, Ptges2: 1.8
[9]; competitor 25 μM
  SILAC ratio Slc25a10: 1.2
[10]; competitor 25 μM
  SILAC ratio Abcd3: 1.2

## CN1CCN(C(=O)c2[nH]c3ccc([N+](=O)[O-])cc3c2-c2ccccc2)CC1 [MJN228, (4-Methylpiperazin-1-yl)(5-nitro-3-phenyl-1H-indol-2-yl)methanone]
[1]; competitor 10 μM
  SILAC ratio, Nenf: 1.3
[1]; competitor 25 μM
  SILAC ratio, Nenf: 1.3
[1]; competitor 50 μM
  SILAC ratio, Nenf: 1.8
[1]; competitor 100 μM
  SILAC ratio, Nenf: 1.7
[2]; competitor 10 μM
  SILAC ratio Atp5f1: 1.2
[2]; competitor 25 μM
  SILAC ratio Atp5f1: 1.5
[2]; competitor 50 μM
  SILAC ratio Atp5f1: 1.6
[2]; competitor 100 μM
  SILAC ratio Atp5f1: 1.8
[3]; competitor 25 μM
  SILAC ratio, Akr1b8: 1.9
[3]; competitor 50 μM
  SILAC ratio, Akr1b8: 2.1
[3]; competitor 100 μM
  SILAC ratio, Akr1b8: 2.7
[11]; competitor 10 μM
  SILAC ratio, Sar1a: 1.3
[11]; competitor 25 μM
  SILAC ratio, Sar1a: 1.7
[11]; competitor 50 μM
  SILAC ratio, Sar1a: 1.7
[11]; competitor 100 μM
  SILAC ratio, Sar1a: 2.2
[4]; competitor 10 μM
  SILAC ratio, Prkar1a: 1.9
[4]; competitor 25 μM
  SILAC ratio, Prkar1a: 1.9
[4]; competitor 50 μM
  SILAC ratio, Prkar1a: 2.1
[4]; competitor 100 μM
  SILAC ratio, Prkar1a: 2.8
[5]; competitor 10 μM
  SILAC ratio Ncstn: 1.3
[5]; competitor 25 μM
  SILAC ratio Ncstn: 1.6
[5]; competitor 50 μM
  SILAC ratio Ncstn: 1.2
[5]; competitor 100 μM
  SILAC ratio Ncstn: 1.8
[6]; competitor 10 μM
  SILAC ratio, Slc25a32: 1.5
[6]; competitor 25 μM
  SILAC ratio, Slc25a32: 1.5
[6]; competitor 50 μM
  SILAC ratio, Slc25a32: 1.5
[6]; competitor 100 μM
  SILAC ratio, Slc25a32: 1.9
[7]; competitor 10 μM
  SILAC ratio, Abhd5: 1.6
[7]; competitor 25 μM
  SILAC ratio, Abhd5: 2.2
[7]; competitor 50 μM
  SILAC ratio, Abhd5: 4.0
[7]; competitor 100 μM
  SILAC ratio, Abhd5: 14.3
[8]; competitor 10 μM
  SILAC ratio, Ptges2: 1.3
[8]; competitor 25 μM
  SILAC ratio, Ptges2: 1.4
[8]; competitor 100 μM
  SILAC ratio, Ptges2: 2.3
[9]; competitor 10 μM
  SILAC ratio Slc25a10: 1.2
[9]; competitor 25 μM
  SILAC ratio Slc25a10: 1.2
[9]; competitor 50 μM
  SILAC ratio Slc25a10: 1.3
[9]; competitor 100 μM
  SILAC ratio Slc25a10: 1.0
[10]; competitor 10 μM
  SILAC ratio Abcd3: 1.2
[10]; competitor 25 μM
  SILAC ratio Abcd3: 1.5
[10]; competitor 50 μM
  SILAC ratio Abcd3: 1.3
[10]; competitor 100 μM
  SILAC ratio Abcd3: 1.2

## C=CCN(C)CCCCCCOc1ccc(C(=O)c2ccc(Br)cc2)c(F)c1 [Ro 48-8071, reference compound]
[1]; competitor 25 μM
  SILAC ratio, Nenf: 0.9
[2]; competitor 25 μM
  SILAC ratio Atp5f1: 1.0
[3]; competitor 25 μM
  SILAC ratio, Akr1b8: 1.4
[11]; competitor 25 μM
  SILAC ratio, Sar1a: 1.1
[4]; competitor 25 μM
  SILAC ratio, Prkar1a: 1.0
[5]; competitor 25 μM
  SILAC ratio Ncstn: 1.0
[6]; competitor 25 μM
  SILAC ratio, Slc25a32: 1.1
[7]; competitor 25 μM
  SILAC ratio, Abhd5: 1.4
[8]; competitor 25 μM
  SILAC ratio, Ptges2: 1.3
[9]; competitor 25 μM
  SILAC ratio Slc25a10: 0.9
[10]; competitor 25 μM
  SILAC ratio Abcd3: 0.9
